“Also recorded” adds a separate entry of the source. Where a name gives a salt, the structure may show the parent alone.
Key:
mossy fibers = assay: Pharmacology: SHG from mossy fibers of acute hippocampal slices after cytoskeleton-depolymerizing drugs; assay type: cell-based, rat; settings: for Effect on SHG from mossy fibers compared to the control: cytochalasin D 1 μM or nocodazole 25 μM, solvent control
Description: SHG and TPF microscopy were simultaneously performed on either a Bio-Rad MRC 1024 or Radiance scan head on a modified inverted Olympus IX-70 microscope (FIG. 1). The excitation source was a mode-locked Ti:Sapphire laser (˜100 fs pulses at 80 MHz) (Spectra-Physics) pumped by a 5 W solid state Millennia laser (Spectra-Physics). The laser polarization was controlled via a Berek polarization compensator (New Focus, San Jose, Calif.) and the beam focused into the sample with one of the following (overfilled back aperture) objectives: Zeiss C-Apochromat 10×/0.45 NA, Olympus UApo 20×/0.7 NA, Zeiss Fluar 20×/0.75 NA, Olympus UApo 40×/1.15 NA, Zeiss Fluar 40×/1.3 NA. The resultant SHG was collected in the transmitted (forward) direction with an Olympus XLUMPlanFl 20×/0.95 NA objective, while the TPF was epi-collected through the excitation objective. A combination of dichroic mirrors, band-pass and blue-glass filters (Chroma Technology, Brattleboro, Vt.) and polarization analyzers (Newport) separated the signals for detection with Bialkali photo-multiplier tubes (PMTs) (Hammamatsu). The excitation wavelength, average excitation intensity (<I>) at the sample, and two-photon 1/e radial Gaussian beam waist approximation (w) (Richards et al., Proc Royal Soc London Series A-Mathematical Physical Sciences 253:358-379 (1959), which is hereby incorporated by reference in its entirety) are given with the figures. The average power at the sample is (<I>·π·w^2). The images are temporally summed over several scans at dwell times ˜10-100 μs/μm^2. Confocal imaging was performed on the same microscope, but using an argon-krypton laser for excitation. […]
The slices were transferred from the static incubation bath to a static ASCF bath on the microscope stage. […] The average intensities from the three groups were calculated and compared for statistical significance with a T-test.

cultured Aplysia neurons = assay: SHG line scan recording of Vm in dye-stained cultured Aplysia neurons under voltage clamp; assay type: cell-based, Aplysia californica; settings: 8 μM dye extracellular perfusion, 940 nm excitation, two-electrode voltage clamp
Protocol: Abdominal and cerebral ganglia from up to 15 different 5-10 g Aplysia californica were dissociated and cultured with like ganglia (i.e., abdominal with abdominal, cerebral with cerebral) according to Banker and Goslin (i.e., Banker et al., Culturing Nerve Cells, 2nd Edition, Cambridge, Mass.: MIT Press (1998), which is hereby incorporated by reference in its entirety). The cultures were grown in MatTek glass bottom dishes (MatTek Corp., Ashland, Mass.) at 17-18 C. For recordings, 4 to 14 day old cultures were used.
For staining and imaging, 4-[[4-(dihexylamino)phenyl]]ethynyl]-1-(4-sulfobutyl)pyridinium, inner salt (“DHPESBP”) (“Molecule B” from Moreaux et al., “Electro-Optic Response of Second-Harmonic Generation Membrane Potential Sensors,” Optics Letters 28:625-627 (2003), which is hereby incorporated by reference in its entirety) was used, because of its proven fast (<150 μs) response to Vm. SHG from giant unilamellar vesicles stained with this molecule was sensitive to Vm on fast time scales through an electrochromic (rather than reorientational) mechanism (Moreaux et al., “Electro-Optic Response of Second-Harmonic Generation Membrane Potential Sensors,” Optics Letters 28:625-627 (2003), which is hereby incorporated by reference in its entirety). […]

[1] = electrochromic mechanism; from Moreaux et al., Optics Letters 28:625-627 (2003); cited from earlier work
[2] = test system: neurons in the hippocampal region; assay: SHG line scan recording of membrane potential in dye-filled neurons of acute brain slices; assay type: cell-based, rat; settings: neurons filled with dye via patch pipette, ~1060 nm/~300 fs laser pulses, voltage steps at the soma
Description: SHG microscopy is emerging as a powerful new method to optically record membrane potential changes of active neurons. […] This technique has been applied to acute rat brain slices by patch clamping and filling neurons in the hippocampal region with the dye FM4-64. […] The SHG signal emanates from the plasma membrane with little background from intra- or extracellular regions. […] Additionally, it has been shown that a backward propagating SHG signal exists (Forward/Backward ratio ˜6).
Repeated line scanning of the SHG signal was used to optically record action potentials (signal to noise ratio (S/N) ˜5-8 by temporal averaging of ˜50 line scans) on somatic membranes. Voltage steps were applied at the soma and the SHG response was recorded in the dendritic arbor >100 μm deep in slice. Dendritic spines were clearly visible, possibly making the recording of membrane potential transients from these compartments feasible. […] The line scan averaging necessary to increase S/N was accomplished in minutes. […] In addition to patch clamping, it was shown that extracellular micropipette pressure injection of the dye into hippocampal cell layers leads to SHG labeling of many tens of neurons.

C=C1[C@@H](C)[C@H]2[C@H](Cc3ccccc3)NC(=O)[C@]23[C@H](OC(C)=O)/C=C/[C@@](C)(O)C(=O)[C@@H](C)C/C=C/[C@H]3[C@@H]1O [Cytochalasin D]
Effect on SHG from mossy fibers compared to the control (mossy fibers): did not affect the SHG; also recorded: no significant effect

CCCCCCN(CCCCCC)c1ccc(C#Cc2cc[n+](CCCCS(=O)(=O)[O-])cc2)cc1 [DHPESBP, 4-[[4-(dihexylamino)phenyl]ethynyl]-1-(4-sulfobutyl)pyridinium, inner salt]
SHG signal change as a function of change in membrane potential (linear response) (cultured Aplysia neurons): ~6 %/100 mV | Response time of SHG to Vm [1]: < 150 μs

CCN(CC)c1ccc(C=CC=CC=Cc2cc[n+](CCC[N+](CC)(CC)CC)cc2)cc1.[Br-].[Br-] [FM4-64, N-(3-triethylammoniumpropyl)-4-(6-(4-(diethylamino)phenyl)hexatrienyl)pyridinium dibromide]
SHG signal linear response to membrane potential [2]: ~7.7 %/100 mV

COC(=O)Nc1nc2ccc(C(=O)c3cccs3)cc2[nH]1 [nocodazole, Nocodazole]
SHG from the mossy fibers after addition of the drug, relative to its original value (mossy fibers; continuous treatment, nocodazole 25 μM, imaged for 70 min, 34° C., 4 slices): ~39% | Effect on SHG from mossy fibers compared to the control (mossy fibers): drastic

Reference: US20050259249A1, “Nonlinear optical detection of fast cellular electrical activity” (priority 2004, published 2005)
